Reference: US12201640B2, “19-nor C3,3-disubstituted C21-n-pyrazolyl steroids and methods of use thereof” (Sage Therapeutics, Inc., priority 2013, dated 2025)

Experiments:
[1] = target: [35S]-TBPS binding, rat brain cortical membranes (GABA receptor complex); assay: Steroid inhibition of [35S]-TBPS binding; conditions: 3 nM [35S]-TBPS, 5 μM GABA
Experimental: Steroid Inhibition of TBPS Binding
[35S]-t-Butylbicyclophosphorothionate (TBPS) binding assays using rat brain cortical membranes in the presence of 5 μM GABA has been described (Gee et al, J. Pharmacol. Exp. Ther. 1987, 241, 346-353; Hawkinson et al, Mol. Pharmacol. 1994, 46, 977-985; Lewin, A. H et al., Mol. Pharmacol. 1989, 35, 189-194).
Briefly, cortices are rapidly removed following decapitation of carbon dioxide-anesthetized Sprague-Dawley rats (200-250 g). The cortices are homogenized in 10 volumes of ice-cold 0.32 M sucrose using a glass/teflon homogenizer and centrifuged at 1500×g for 10 min at 4° C. The resultant supernatants are centrifuged at 10,000×g for 20 min at 4° C. to obtain the P2 pellets. The P2 pellets are resuspended in 200 mM NaCl/50 mM Na-K phosphate pH 7.4 buffer and centrifuged at 10,000×g for 10 min at 4° C. This washing procedure is repeated twice and the pellets are resuspended in 10 volumes of buffer. Aliquots (100 μL) of the membrane suspensions are incubated with 3 nM [^35S]-TBPS and 5 μL aliquots of test drug dissolved in dimethyl sulfoxide (DMSO) (final 0.5%) in the presence of 5 μM GABA. The incubation is brought to a final volume of 1.0 mL with buffer. Nonspecific binding is determined in the presence of 2 μM unlabeled TBPS and ranged from 15 to 25%. Following a 90 min incubation at room temp, the assays are terminated by filtration through glass fiber filters (Schleicher and Schuell No. 32) using a cell harvester (Brandel) and rinsed three times with ice-cold buffer. Filter bound radioactivity is measured by liquid scintillation spectrometry. Non-linear curve fitting of the overall data for each drug averaged for each concentration is done using Prism (GraphPad). […] The concentration of test compound producing 50% inhibition (IC50) of specific binding and the maximal extent of inhibition (Imax) are determined for the individual experiments with the same model used for the overall data and then the means±SEM.s of the individual experiments are calculated.
Various compounds are or can be screened to determine their potential as modulators of [^35S]-TBPS binding in vitro. These assays are or can be performed in accordance with the above discussed procedures.

GABAA receptor α4β3δ = target: T1, GABAA receptor α4β3δ (Homo sapiens, UniProt P28472+P48169); assay: Patch clamp electrophysiology, manual patch in CHO cells; type: cell-based; conditions: 10 μM test article, GABA EC20 2 μM, read-out: GABA (α4β3δ) Manual patch in CHO, % efficacy at 10 μM
T1 construct: expressed in transfected cells; host or cells: CHO cells (transient, lipofection)
Experimental: Patch Clamp Electrophysiology of Recombinant α1β2γ2 and α4β3δ GABAA Receptors
Cellular electrophysiology is used to measure the pharmacological properties of our GABAA receptor modulators in heterologous cell systems. Each compound is tested for its ability to affect GABA mediated currents at a submaximal agonist dose (GABA EC20=2 μM). LTK cells are stably transfected with the α1β2γ2 subunits of the GABA receptor and CHO cells are transiently transfected with the α4β3δ subunits via the Lipofecatamine method. Cells were passaged at a confluence of about 50-80% and then seeded onto 35 mm sterile culture dishes containing 2 ml culture complete medium without antibiotics or antimycotics. Confluent clusters of cells are electrically coupled (Pritchett et al., Science, 1988, 242, 1306-1308.). Because responses in distant cells are not adequately voltage clamped and because of uncertainties about the extent of coupling (Verdoorn et al., Neuron 1990, 4, 919-928.), cells were cultivated at a density that enables the recording of single cells (without visible connections to other cells).
Whole cell currents were measured with HEKA EPC-10 amplifiers using PatchMaster software or by using the high throughput QPatch platform (Sophion). Bath solution for all experiments contained (in mM): NaCl 137 mM, KCl 4 mM, CaCl2 1.8 mM, MgCl2 1 mM, HEPES 10 mM, D-Glucose 10 mM, pH (NaOH) 7.4. In some cases 0.005% cremophor was also added. Intracellular (pipette) solution contained: KCl 130 mM, MgCl2 1 mM, Mg-ATP 5 mM, HEPES 10 mM, EGTA 5 mM, pH 7.2. During experiments, cells and solutions were maintained at room temperature (19° C.-30° C.). For manual patch clamp recordings, cell culture dishes were placed on the dish holder of the microscope and continuously perfused (1 ml/min) with bath solution. After formation of a Gigaohm seal between the patch electrodes and the cell (pipette resistance range: 2.5 MΩ-6.0 MΩ; seal resistance range: >1 GΩ) the cell membrane across the pipette tip was ruptured to assure electrical access to the cell interior (whole-cell patch-configuration). For experiments using the QPatch system, cells were transferred as suspension to the QPatch system in the bath solution and automated whole cell recordings were performed.
Cells were voltage clamped at a holding potential of −80 mV. For the analysis of test articles, GABA receptors were stimulated by 2 μM GABA after sequential pre-incubation of increasing concentrations of the test article. Pre-incubation duration was 30 s and the duration of the GABA stimulus was 2 s. Test articles were dissolved in DMSO to form stock solutions (10 mM). Test articles were diluted to 0.01, 0.1, 1, and 10 μM in bath solution. All concentrations of test articles were tested on each cell. The relative percentage potentiation was defined as the peak amplitude in response to GABA EC20 in the presence of the test article divided by the peak amplitude in response to GABA EC20 alone, multiplied by 100.

T1 sequence (P48169 36-554): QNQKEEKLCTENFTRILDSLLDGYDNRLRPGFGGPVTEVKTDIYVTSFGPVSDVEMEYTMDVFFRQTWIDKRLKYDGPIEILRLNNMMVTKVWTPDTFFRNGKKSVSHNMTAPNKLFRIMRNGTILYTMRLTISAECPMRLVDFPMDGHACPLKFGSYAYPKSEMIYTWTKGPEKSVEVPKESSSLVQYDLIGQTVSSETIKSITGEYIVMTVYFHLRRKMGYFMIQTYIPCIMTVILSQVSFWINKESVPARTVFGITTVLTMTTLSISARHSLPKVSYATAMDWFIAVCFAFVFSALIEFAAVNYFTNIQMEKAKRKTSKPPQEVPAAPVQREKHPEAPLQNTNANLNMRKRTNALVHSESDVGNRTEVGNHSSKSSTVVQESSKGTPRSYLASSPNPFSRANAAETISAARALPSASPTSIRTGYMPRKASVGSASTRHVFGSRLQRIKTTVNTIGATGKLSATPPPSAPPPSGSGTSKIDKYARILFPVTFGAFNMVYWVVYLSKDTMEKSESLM
T1 sequence (P28472 26-473): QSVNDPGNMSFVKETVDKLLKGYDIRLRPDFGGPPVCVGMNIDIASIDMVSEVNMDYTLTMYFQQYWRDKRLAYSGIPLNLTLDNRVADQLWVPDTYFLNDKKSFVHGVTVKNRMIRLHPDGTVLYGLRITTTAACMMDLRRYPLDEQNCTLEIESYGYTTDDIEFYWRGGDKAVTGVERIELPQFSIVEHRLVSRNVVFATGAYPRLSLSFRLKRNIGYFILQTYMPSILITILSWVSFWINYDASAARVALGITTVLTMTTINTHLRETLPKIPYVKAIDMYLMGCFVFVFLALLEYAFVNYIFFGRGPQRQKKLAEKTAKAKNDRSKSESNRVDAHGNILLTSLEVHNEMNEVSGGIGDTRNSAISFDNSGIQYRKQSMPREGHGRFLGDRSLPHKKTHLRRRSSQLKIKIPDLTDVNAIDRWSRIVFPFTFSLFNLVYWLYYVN
T1 sequence (O14764 25-452 partner): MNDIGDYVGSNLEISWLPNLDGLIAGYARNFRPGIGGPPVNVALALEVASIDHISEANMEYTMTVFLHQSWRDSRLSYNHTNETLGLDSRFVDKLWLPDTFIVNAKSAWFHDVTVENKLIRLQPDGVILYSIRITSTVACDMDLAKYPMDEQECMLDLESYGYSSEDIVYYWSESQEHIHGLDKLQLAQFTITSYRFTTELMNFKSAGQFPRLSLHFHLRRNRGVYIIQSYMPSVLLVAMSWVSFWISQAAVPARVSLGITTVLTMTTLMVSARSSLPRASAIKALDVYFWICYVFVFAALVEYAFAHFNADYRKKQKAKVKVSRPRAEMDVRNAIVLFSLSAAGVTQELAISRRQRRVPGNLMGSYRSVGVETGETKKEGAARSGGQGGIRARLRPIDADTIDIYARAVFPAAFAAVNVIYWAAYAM

Row | SMILES | IC50 [1] [nM] | Emax at 10 µM (GABAA receptor α4β3δ) [%]
1 | C[C@@]1(O)CC[C@H]2[C@H](CC[C@@H]3[C@@H]2CC[C@]2(C)[C@@H](C(=O)Cn4cccn4)CC[C@@H]32)C1 [SA-13] | 10 to 50 | > 500
2 | Cc1cnn(CC(=O)[C@H]2CC[C@H]3[C@@H]4CC[C@@H]5C[C@](C)(O)CC[C@@H]5[C@H]4CC[C@]23C)c1 [SA-6] | 10 to 50 | > 500
3 | C[C@@]1(O)CC[C@H]2[C@H](CC[C@@H]3[C@@H]2CC[C@]2(C)[C@@H](C(=O)Cn4cc(C#N)cn4)CC[C@@H]32)C1 [SA-4] | < 10 | 100 to 500
